{"source": "ChEMBL document CHEMBL3632469", "about": "“Discovery of dihydroquinazolinone derivatives as potent, selective, and CNS-penetrant M(1) and M(4) muscarinic acetylcholine receptors agonists” (Bioorg Med Chem Lett, 2015)", "key": {"[1]": {"biological_target": "T1, Muscarinic acetylcholine receptor M4 (Homo sapiens) (UniProt P08173)", "T1 sequence (whole entry)": "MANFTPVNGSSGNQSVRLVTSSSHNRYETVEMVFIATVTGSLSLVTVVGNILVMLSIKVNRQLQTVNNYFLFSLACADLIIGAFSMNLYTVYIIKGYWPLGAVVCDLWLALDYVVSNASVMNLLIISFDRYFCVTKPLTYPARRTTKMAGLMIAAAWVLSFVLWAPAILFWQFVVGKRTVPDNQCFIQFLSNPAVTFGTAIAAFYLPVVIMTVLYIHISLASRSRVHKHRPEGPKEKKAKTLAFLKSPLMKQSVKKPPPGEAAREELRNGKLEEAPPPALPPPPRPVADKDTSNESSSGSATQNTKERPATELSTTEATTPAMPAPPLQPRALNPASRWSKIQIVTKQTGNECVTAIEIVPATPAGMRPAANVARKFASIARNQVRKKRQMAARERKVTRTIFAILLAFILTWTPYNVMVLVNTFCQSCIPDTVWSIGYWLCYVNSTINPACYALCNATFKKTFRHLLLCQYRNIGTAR", "experiment": "Partial agonist activity at human muscarinic M4 acetylcholine receptor expressed in CHO cells co-expressing Galpha16 assessed as calcium mobilization at 30 uM by FLIPR assay; call rule not given here", "type": "functional, cell-based"}, "[2]": {"biological_target": "T2, Muscarinic acetylcholine receptor M5 (Homo sapiens) (UniProt P08912)", "T2 sequence (whole entry)": "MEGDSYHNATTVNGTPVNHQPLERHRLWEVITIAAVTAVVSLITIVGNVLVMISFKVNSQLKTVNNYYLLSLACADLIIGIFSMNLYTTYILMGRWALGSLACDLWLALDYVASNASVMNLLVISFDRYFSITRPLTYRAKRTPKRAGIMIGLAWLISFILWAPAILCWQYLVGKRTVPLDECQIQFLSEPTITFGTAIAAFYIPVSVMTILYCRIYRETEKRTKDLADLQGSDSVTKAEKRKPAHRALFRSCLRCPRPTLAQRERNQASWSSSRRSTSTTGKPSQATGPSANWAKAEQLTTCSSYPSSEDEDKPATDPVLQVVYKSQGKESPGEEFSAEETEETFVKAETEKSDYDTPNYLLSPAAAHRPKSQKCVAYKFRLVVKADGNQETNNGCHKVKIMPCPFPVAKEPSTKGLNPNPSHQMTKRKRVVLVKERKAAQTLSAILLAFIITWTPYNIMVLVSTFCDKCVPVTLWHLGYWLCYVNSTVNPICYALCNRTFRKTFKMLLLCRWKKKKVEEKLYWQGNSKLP", "experiment": "Agonist activity at human muscarinic M5 acetylcholine receptor expressed in CHO cells assessed as calcium mobilization at 30 uM by FLIPR assay", "type": "functional, cell-based"}, "Cytochrome P450 3A4": {"biological_target": "Cytochrome P450 3A4 (Homo sapiens, UniProt P08684)", "sequence (P08684 whole entry)": "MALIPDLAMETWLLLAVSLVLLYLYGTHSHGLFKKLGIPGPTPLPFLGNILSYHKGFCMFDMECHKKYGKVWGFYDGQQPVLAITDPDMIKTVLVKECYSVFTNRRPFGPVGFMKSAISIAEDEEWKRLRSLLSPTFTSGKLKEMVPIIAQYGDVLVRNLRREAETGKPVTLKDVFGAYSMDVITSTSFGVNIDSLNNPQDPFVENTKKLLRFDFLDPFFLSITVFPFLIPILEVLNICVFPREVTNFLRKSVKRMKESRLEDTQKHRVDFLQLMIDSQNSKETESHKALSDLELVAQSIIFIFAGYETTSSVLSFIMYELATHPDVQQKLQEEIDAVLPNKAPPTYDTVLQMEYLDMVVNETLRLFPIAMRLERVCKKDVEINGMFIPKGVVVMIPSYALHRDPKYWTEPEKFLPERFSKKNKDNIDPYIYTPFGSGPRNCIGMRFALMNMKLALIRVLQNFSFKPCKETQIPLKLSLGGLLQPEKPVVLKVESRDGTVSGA", "experiment": "Inhibition of CYP3A4 (unknown origin)", "type": "ADME"}, "[3]": {"biological_target": "Nuclear receptor subfamily 1 group I member 2 (Homo sapiens, UniProt O75469)", "sequence (O75469 whole entry)": "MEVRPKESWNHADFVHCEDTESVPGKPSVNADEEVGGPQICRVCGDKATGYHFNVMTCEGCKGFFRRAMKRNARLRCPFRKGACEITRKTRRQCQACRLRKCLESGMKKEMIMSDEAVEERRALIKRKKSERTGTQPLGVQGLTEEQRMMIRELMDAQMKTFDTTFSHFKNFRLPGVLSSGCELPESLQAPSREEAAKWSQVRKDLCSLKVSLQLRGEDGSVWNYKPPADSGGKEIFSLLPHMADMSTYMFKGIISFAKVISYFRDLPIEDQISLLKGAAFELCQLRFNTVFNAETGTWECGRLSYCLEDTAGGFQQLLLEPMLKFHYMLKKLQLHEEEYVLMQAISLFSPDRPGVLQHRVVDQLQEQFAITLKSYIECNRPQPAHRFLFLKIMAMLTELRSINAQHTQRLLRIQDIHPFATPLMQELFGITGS", "experiment": "Induction of human PXR", "type": "ADME"}, "[4]": {"biological_target": "Alpha-1A adrenergic receptor (Homo sapiens) (UniProt P35348)", "sequence (P35348 whole entry)": "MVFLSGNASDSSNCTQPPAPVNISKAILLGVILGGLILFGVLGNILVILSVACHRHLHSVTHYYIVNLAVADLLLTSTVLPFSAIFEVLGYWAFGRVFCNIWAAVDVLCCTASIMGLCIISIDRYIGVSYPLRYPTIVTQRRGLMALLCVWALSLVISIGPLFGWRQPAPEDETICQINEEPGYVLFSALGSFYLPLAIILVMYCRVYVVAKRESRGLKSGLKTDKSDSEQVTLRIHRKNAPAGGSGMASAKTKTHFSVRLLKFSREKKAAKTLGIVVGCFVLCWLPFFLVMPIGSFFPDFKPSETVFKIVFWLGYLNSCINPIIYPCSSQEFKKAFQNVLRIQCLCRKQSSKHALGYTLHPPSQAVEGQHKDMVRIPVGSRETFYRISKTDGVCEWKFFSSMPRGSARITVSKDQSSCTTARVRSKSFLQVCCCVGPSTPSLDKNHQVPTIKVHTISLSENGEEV", "experiment": "Binding affinity to adrenergic alpha1A receptor (unknown origin) at 3 uM by radioligand-binding assay"}, "[5]": {"biological_target": "T3, Muscarinic acetylcholine receptor M2 (Homo sapiens) (UniProt P08172)", "T3 sequence (whole entry)": "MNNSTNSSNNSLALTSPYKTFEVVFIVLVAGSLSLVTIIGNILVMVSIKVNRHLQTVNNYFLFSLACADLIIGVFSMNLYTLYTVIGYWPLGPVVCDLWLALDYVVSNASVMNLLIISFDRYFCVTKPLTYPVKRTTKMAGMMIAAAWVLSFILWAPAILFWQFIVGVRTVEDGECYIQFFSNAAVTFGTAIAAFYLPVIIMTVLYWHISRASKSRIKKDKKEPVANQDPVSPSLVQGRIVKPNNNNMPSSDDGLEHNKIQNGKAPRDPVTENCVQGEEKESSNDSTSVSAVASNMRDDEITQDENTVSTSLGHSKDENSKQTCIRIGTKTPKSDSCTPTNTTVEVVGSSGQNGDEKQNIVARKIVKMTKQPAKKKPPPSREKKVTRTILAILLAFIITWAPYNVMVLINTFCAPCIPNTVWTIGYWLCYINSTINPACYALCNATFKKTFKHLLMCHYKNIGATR", "experiment": "Agonist activity at human muscarinic M2 acetylcholine receptor expressed in CHO cells co-expressing Galpha16 assessed as calcium mobilization at 30 uM by FLIPR assay", "type": "functional, cell-based"}, "[6]": {"biological_target": "Adrenergic receptor alpha-1 (Homo sapiens) (UniProt P35348+P25100+P35368)", "experiment": "Agonist activity at adrenergic a1 receptor (unknown origin) expressed in CHO cells assessed as calcium mobilization at 3 uM", "type": "functional, cell-based"}, "[7]": {"biological_target": "Beta-1 adrenergic receptor (Homo sapiens) (UniProt P08588)", "experiment": "Agonist activity at adrenergic beta1 receptor (unknown origin) expressed in CHO cells assessed as calcium mobilization at 3 uM", "type": "functional, cell-based"}, "[8]": {"biological_target": "Beta-2 adrenergic receptor (Homo sapiens) (UniProt P07550)", "experiment": "Agonist activity at adrenergic beta2 receptor (unknown origin) expressed in CHO cells assessed as calcium mobilization at 3 uM", "type": "functional, cell-based"}, "[9]": {"biological_target": "Endothelin-1 receptor (Homo sapiens) (UniProt P25101)", "sequence (P25101 whole entry)": "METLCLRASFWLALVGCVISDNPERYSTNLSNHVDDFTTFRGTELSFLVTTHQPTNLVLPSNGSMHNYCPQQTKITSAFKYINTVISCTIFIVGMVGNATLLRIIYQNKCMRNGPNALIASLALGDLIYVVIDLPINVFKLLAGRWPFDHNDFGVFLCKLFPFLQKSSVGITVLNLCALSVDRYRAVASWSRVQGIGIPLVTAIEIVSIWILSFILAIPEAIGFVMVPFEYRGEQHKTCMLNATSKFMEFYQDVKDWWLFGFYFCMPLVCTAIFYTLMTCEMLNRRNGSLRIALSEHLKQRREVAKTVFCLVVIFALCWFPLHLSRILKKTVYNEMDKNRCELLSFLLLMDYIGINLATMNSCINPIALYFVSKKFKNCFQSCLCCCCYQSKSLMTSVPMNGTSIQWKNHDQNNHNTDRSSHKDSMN", "experiment": "Agonist activity at endothelin a receptor (unknown origin) expressed in CHO cells assessed as calcium mobilization at 3 uM", "type": "functional, cell-based"}, "[10]": {"biological_target": "Cysteinyl leukotriene receptor 2 (Homo sapiens) (UniProt Q9NS75)", "experiment": "Agonist activity at CysLT2 receptor (unknown origin) expressed in CHO cells assessed as calcium mobilization at 3 uM", "type": "functional, cell-based"}, "[11]": {"biological_target": "Kappa-type opioid receptor (Homo sapiens) (UniProt P41145)", "sequence (P41145 whole entry)": "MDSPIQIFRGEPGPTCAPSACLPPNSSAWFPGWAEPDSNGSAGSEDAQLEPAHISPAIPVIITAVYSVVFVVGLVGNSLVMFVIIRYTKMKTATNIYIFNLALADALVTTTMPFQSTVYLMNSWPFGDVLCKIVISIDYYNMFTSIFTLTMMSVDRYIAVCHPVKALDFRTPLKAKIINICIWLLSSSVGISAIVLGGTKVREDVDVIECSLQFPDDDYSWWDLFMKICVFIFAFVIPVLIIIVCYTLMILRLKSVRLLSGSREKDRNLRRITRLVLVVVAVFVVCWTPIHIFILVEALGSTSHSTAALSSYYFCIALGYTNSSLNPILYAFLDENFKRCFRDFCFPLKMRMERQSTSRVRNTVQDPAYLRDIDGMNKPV", "experiment": "Agonist activity at ppiate kappa receptor (unknown origin) expressed in CHO cells assessed as calcium mobilization at 3 uM", "type": "functional, cell-based"}, "[12]": {"biological_target": "Somatostatin receptor type 2 (Homo sapiens) (UniProt P30874)", "sequence (P30874 whole entry)": "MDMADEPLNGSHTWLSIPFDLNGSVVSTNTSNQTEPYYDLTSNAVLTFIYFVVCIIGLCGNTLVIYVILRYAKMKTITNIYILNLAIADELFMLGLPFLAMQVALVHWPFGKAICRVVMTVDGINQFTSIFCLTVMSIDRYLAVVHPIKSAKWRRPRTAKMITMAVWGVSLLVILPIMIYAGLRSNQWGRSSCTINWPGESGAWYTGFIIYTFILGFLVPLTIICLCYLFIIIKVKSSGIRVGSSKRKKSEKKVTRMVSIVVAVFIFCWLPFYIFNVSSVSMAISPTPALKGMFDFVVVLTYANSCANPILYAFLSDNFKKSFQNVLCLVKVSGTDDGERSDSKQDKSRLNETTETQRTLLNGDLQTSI", "experiment": "Agonist activity at SSTR2 receptor (unknown origin) expressed in CHO cells assessed as calcium mobilization at 3 uM", "type": "functional, cell-based"}, "[13]": {"biological_target": "D(2) dopamine receptor (Homo sapiens) (UniProt P14416)", "sequence (P14416 whole entry)": "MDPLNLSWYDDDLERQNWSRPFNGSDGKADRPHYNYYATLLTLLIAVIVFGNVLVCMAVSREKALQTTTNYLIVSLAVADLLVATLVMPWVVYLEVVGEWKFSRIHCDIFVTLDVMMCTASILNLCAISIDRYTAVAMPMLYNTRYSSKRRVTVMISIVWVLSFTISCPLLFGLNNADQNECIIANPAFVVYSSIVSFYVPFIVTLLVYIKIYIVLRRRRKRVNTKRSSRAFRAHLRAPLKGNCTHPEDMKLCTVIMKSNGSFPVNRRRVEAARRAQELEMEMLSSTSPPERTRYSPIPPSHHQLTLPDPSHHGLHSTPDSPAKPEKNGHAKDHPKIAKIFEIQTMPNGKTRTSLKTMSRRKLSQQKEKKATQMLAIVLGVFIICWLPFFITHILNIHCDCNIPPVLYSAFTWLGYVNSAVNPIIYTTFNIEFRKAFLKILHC", "experiment": "Antagonist activity at dopamine D2L receptor (unknown origin) expressed in CHO cells assessed as calcium mobilization at 3 uM", "type": "functional, cell-based"}, "[14]": {"biological_target": "Histamine H3 receptor (Homo sapiens) (UniProt Q9Y5N1)", "sequence (Q9Y5N1 whole entry)": "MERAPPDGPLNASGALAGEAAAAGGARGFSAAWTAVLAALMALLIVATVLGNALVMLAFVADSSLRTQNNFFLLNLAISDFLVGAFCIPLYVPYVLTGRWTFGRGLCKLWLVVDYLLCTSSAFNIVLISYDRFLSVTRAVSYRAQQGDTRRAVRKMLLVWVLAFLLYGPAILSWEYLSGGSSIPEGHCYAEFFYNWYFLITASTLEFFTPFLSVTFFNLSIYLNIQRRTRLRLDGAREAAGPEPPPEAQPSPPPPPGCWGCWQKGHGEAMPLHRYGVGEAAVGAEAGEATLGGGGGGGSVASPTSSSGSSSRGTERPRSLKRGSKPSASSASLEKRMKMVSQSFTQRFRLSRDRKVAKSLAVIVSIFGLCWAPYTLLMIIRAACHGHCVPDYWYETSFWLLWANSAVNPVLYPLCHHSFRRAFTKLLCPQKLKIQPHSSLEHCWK", "experiment": "Antagonist activity at histamine H3 receptor (unknown origin) expressed in CHO cells assessed as calcium mobilization at 3 uM", "type": "functional, cell-based"}, "[15]": {"biological_target": "5-hydroxytryptamine receptor 1A (Homo sapiens) (UniProt P08908)", "sequence (P08908 whole entry)": "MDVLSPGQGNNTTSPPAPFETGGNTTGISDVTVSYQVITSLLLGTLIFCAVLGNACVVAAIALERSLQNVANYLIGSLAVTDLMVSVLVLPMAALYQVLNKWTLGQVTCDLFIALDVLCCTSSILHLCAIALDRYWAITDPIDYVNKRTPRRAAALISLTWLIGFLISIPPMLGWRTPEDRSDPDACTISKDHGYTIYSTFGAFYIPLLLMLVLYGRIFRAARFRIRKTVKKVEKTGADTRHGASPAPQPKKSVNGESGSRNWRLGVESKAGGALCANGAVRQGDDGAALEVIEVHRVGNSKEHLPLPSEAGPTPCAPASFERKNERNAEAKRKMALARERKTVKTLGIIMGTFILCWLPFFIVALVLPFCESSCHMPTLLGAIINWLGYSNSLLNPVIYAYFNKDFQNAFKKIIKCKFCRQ", "experiment": "Antagonist activity at 5-HT1a receptor (unknown origin) expressed in CHO cells assessed as calcium mobilization at 3 uM", "type": "functional, cell-based"}, "[16]": {"biological_target": "5-hydroxytryptamine receptor 1E (Homo sapiens) (UniProt P28566)", "sequence (P28566 whole entry)": "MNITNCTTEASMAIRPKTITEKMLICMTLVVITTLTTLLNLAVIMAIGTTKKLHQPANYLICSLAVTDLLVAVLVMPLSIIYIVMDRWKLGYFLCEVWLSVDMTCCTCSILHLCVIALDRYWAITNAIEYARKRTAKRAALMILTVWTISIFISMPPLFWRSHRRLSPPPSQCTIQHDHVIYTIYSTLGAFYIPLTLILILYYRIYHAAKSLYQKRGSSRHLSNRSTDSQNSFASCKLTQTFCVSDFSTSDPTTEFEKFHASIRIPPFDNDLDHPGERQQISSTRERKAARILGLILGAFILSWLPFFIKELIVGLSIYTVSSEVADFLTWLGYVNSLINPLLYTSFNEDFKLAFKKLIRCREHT", "experiment": "Antagonist activity at 5-HT1E receptor (unknown origin) expressed in CHO cells assessed as calcium mobilization at 3 uM", "type": "functional, cell-based"}, "[17]": {"biological_target": "5-hydroxytryptamine receptor 2B (Homo sapiens) (UniProt P41595)", "experiment": "Antagonist activity at 5-HT2B receptor (unknown origin) expressed in CHO cells assessed as calcium mobilization at 3 uM", "type": "functional, cell-based"}, "[18]": {"biological_target": "5-hydroxytryptamine receptor 2C (Homo sapiens) (UniProt P28335)", "sequence (P28335 whole entry)": "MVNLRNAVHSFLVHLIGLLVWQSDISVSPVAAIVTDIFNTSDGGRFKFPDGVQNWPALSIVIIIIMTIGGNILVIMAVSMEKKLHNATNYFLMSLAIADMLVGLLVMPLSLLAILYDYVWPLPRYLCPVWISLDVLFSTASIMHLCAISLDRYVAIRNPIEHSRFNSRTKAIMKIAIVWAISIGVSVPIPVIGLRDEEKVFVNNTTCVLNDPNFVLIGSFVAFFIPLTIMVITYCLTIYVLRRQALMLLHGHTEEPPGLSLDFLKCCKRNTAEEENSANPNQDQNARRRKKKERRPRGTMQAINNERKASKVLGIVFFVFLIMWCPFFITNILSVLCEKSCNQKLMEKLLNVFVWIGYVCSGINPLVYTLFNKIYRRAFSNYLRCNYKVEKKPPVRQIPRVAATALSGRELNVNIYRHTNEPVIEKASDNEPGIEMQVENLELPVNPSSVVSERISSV", "experiment": "Antagonist activity at 5-HT2C receptor (unknown origin) expressed in CHO cells assessed as calcium mobilization at 3 uM", "type": "functional, cell-based"}}}
{"smiles": "CCOC(=O)N1[C@@H]2CC[C@H]1C[C@H](CN1CC[C@@H](N3Cc4ccccc4NC3=O)C1)C2", "values": [{"measurement": "Activity", "setting": "[1]", "value": 51, "unit": "%"}, {"measurement": "Activity", "setting": "[2]", "value": 3, "unit": "%"}, {"measurement": "IC50", "setting": "Cytochrome P450 3A4", "value": "> 2", "unit": "µM"}, {"measurement": "Activity", "setting": "[3]", "value": "Not Active"}, {"measurement": "inhibition", "setting": "[4]", "value": 6, "unit": "%"}, {"measurement": "Activity", "setting": "[5]", "value": 3, "unit": "%"}, {"measurement": "Activity", "setting": "[6]", "value": -0.04, "unit": "%"}, {"measurement": "Activity", "setting": "[7]", "value": 0.03, "unit": "%"}, {"measurement": "Activity", "setting": "[8]", "value": -0.21, "unit": "%"}, {"measurement": "Activity", "setting": "[9]", "value": 0.27, "unit": "%"}, {"measurement": "Activity", "setting": "[10]", "value": 0.03, "unit": "%"}, {"measurement": "Activity", "setting": "[11]", "value": -0.33, "unit": "%"}, {"measurement": "Activity", "setting": "[12]", "value": 0.39, "unit": "%"}, {"measurement": "inhibition", "setting": "[13]", "value": 13.2, "unit": "%"}, {"measurement": "inhibition", "setting": "[14]", "value": 13.7, "unit": "%"}, {"measurement": "inhibition", "setting": "[15]", "value": -3.46, "unit": "%"}, {"measurement": "inhibition", "setting": "[16]", "value": -0.04, "unit": "%"}, {"measurement": "inhibition", "setting": "[17]", "value": 6.13, "unit": "%"}, {"measurement": "inhibition", "setting": "[18]", "value": -5.25, "unit": "%"}]}
